Where a SMILES comes first, the peptide text is derived from it. Bridges are numbered along the chain shown (N, C = ends). [ ]: non-standard residue; d: D form. The star is where a group is joined. X1 = C[C@@H](NC(=O)[C@@H]1CCCN1C(=O)[C@H](Cc1cnc[nH]1)NC[C@H](CCCCN)N*)C(=O)O; Sar = CNCC(=O)O
Key:
[1] = molecular target: T1, D(2) dopamine receptor (Homo sapiens, UniProt P14416); assay: Agonist activity at dopamine D2 receptor (unknown origin) expressed in HEK293T cells co-expressing luciferase based cAMP biosensor assessed as inhibition of forskolin-mediated cAMP accumulation after 15 mins by microbeta luminescence counting assay; format: functional, cell-based
T1 sequence (P14416 whole entry): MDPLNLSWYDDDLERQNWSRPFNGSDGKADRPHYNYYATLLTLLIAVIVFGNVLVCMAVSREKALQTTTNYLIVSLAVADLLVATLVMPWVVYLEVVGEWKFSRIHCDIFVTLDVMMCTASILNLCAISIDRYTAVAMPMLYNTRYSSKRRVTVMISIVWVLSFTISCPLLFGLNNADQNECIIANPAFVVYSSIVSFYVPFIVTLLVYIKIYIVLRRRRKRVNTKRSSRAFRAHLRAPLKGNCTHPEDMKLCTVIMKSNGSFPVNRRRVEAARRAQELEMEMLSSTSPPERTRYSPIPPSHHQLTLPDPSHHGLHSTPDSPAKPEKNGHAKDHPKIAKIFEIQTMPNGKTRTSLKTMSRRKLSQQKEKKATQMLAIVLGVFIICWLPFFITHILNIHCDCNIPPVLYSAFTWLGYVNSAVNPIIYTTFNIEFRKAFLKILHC

[2] = molecular target: T1, D(2) dopamine receptor; assay: Agonist activity at dopamine D2 receptor (unknown origin) expressed in HEK293T cells co-expressing luciferase based cAMP biosensor assessed as inhibition of forskolin-mediated cAMP accumulation at 1 uM after 15 mins by microbeta luminescence counting assay relative to control; format: functional, cell-based
[3] = molecular target: T1, D(2) dopamine receptor; assay: Agonist activity at human dopamine D2long receptor (unknown origin) expressed in HEK293T cells co-expressing TEV fused-beta-Arrestin2 and GRK2 assessed as increase in beta-arrestin-2 recruitment after overnight incubation by Tango assay; format: cell-based
[4] = molecular target: T1, D(2) dopamine receptor; assay: Ratio of EC50 for dopamine D2 receptor (unknown origin) expressed in HEK293T cells co-expressing luciferase based cAMP biosensor assessed as inhibition of forskolin-mediated cAMP accumulation to EC50 for human dopamine D2long receptor (unknown origin) expressed in HEK293T cells co-expressing TEV fused-beta-Arrestin2 and GRK2 assessed as increase in beta-arrestin-2 recruitment; format: functional, cell-based
[5] = molecular target: T1, D(2) dopamine receptor; assay: Agonist activity at human dopamine D2long receptor (unknown origin) expressed in HEK293T cells co-expressing TEV fused-beta-Arrestin2 and GRK2 assessed as increase in beta-arrestin-2 recruitment at 1 uM after overnight incubation by Tango assay relative to control; format: cell-based
[6] = molecular target: T2, Apelin receptor (Homo sapiens, UniProt P35414); assay: Induction of human APJ receptor internalization by cell based assay
T2 sequence (P35414 whole entry): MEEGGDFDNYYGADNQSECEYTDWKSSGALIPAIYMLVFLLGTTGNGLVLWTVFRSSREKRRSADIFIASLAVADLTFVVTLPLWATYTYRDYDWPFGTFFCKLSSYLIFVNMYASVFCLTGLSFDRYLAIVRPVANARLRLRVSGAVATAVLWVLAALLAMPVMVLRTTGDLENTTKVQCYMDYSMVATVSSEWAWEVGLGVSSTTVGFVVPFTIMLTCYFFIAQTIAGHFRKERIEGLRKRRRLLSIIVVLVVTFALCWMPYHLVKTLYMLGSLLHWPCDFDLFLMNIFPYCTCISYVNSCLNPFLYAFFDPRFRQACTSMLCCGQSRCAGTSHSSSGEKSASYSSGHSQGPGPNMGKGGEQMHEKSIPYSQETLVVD

[7] = molecular target: T2, Apelin receptor; assay: Agonist activity at human APJ receptor assessed as increase in beta-arrestin recruitment
[8] = molecular target: T2, Apelin receptor; assay: Agonist activity at human APJ receptor by saphenous vein contraction assay
[9] = molecular target: T3, Type-1 angiotensin II receptor (Homo sapiens, UniProt P30556); assay: Agonist activity at human AT1 receptor assessed as increase in beta-arrestin recruitment by chemiluminescent assay
T3 sequence (P30556 whole entry): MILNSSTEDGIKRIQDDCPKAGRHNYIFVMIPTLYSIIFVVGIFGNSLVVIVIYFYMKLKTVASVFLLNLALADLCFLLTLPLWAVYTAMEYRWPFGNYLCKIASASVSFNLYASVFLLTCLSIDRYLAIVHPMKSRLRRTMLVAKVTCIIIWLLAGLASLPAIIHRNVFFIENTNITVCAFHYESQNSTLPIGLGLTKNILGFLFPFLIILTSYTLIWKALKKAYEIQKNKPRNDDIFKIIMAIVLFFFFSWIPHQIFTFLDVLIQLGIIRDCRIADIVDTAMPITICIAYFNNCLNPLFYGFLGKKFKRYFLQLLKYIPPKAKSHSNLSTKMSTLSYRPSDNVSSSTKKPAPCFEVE

[10] = molecular target: T4, Metabotropic glutamate receptor 5 (Rattus norvegicus, UniProt P31424); assay: Positive allosteric modulation of rat mGlu5 receptor expressed in HEK293 cells assessed as increase in calcium mobilization; format: functional, cell-based
T4 sequence (P31424 whole entry): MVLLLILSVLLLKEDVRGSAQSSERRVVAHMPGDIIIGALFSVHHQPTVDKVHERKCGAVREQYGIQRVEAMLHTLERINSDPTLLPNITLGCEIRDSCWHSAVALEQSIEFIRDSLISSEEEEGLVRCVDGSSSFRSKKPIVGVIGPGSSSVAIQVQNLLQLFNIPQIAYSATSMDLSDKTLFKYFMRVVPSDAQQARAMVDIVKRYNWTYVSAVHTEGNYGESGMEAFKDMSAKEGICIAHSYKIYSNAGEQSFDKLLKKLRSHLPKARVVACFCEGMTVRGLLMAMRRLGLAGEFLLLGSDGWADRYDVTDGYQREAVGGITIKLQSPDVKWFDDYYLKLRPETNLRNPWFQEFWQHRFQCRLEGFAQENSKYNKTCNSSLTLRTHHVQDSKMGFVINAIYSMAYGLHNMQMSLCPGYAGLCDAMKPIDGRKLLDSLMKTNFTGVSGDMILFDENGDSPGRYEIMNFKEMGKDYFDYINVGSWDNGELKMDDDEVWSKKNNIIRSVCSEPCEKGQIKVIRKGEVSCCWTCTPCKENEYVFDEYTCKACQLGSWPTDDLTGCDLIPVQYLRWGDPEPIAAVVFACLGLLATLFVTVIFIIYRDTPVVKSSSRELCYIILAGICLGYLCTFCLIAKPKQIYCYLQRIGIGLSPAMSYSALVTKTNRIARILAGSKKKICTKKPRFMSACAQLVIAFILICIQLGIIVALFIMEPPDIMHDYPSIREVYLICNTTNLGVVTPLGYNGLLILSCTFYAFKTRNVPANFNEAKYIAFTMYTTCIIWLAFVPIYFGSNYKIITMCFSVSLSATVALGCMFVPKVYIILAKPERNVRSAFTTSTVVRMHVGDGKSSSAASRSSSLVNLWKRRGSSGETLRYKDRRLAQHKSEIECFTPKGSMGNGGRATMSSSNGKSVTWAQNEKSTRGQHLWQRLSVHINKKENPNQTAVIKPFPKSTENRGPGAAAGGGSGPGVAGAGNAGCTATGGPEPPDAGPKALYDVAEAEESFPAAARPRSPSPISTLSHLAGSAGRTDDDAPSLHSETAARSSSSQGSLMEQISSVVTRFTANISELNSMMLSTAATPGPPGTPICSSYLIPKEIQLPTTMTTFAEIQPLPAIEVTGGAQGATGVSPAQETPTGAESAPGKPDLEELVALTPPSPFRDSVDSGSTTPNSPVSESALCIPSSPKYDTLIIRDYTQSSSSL

[11] = molecular target: Metabotropic glutamate receptor 5 (Homo sapiens, UniProt P41594); assay: Agonist activity at mGlu5 receptor (unknown origin) expressed in CHO cells assessed as increase in Gq-mediated PI hydrolysis after 45 mins by yttrium scintillation proximity assay; format: cell-based
Chain of Metabotropic glutamate receptor 5 (Homo sapiens, UniProt P41594) (P41594 whole entry): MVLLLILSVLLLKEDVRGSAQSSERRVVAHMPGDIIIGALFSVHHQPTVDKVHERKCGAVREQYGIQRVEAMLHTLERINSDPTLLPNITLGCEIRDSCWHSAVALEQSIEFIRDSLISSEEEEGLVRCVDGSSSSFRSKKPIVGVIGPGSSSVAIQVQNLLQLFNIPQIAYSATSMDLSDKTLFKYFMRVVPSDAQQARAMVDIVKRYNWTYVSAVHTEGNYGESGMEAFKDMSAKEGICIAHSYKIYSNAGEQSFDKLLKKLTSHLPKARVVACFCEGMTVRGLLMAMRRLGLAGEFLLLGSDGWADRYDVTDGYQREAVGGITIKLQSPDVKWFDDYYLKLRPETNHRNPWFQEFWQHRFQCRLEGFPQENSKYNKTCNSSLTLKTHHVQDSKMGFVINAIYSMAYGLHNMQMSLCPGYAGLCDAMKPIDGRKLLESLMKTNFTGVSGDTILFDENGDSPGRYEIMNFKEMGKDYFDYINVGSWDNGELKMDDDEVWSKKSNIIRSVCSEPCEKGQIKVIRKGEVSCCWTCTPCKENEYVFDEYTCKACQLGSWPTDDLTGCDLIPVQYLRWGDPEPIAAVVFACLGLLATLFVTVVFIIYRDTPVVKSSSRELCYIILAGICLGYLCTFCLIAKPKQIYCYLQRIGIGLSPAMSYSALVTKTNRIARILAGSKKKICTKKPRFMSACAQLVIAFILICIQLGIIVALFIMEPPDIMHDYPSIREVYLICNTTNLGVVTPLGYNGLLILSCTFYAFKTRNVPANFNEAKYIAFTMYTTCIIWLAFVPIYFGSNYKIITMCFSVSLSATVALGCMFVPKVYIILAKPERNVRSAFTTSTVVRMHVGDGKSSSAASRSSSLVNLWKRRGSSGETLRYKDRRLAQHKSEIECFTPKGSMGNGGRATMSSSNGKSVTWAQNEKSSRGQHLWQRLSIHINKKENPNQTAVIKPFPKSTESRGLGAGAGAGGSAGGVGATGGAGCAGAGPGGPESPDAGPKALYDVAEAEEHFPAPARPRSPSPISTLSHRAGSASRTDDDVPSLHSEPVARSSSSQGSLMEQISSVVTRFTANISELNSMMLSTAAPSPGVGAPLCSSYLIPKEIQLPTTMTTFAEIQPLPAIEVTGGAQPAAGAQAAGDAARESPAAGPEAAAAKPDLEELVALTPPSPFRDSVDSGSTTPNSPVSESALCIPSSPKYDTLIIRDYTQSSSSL

[12] = system: CHO; assay: Cytoprotection against glutamate-induced cell death in CHO cells assessed as increase in cell viability by colorimetric assay; format: functional, cell-based; settings: Cricetulus griseus
[13] = molecular target: T2, Apelin receptor; assay: Agonist activity at human APJ receptor expressed in HEK293 cells harboring Rluc2-beta-arrestin2 assessed as increase in beta-arrestin2 recruitment after 30 mins by BRET-based luciferase reporter gene assay; format: cell-based
[14] = molecular target: T2, Apelin receptor; assay: Agonist activity at GFP10 tagged human APJ receptor expressed in HEK293 cells harboring Rluc2-beta-arrestin1 assessed as increase in beta-arrestin1 recruitment after 30 mins by BRET-based luciferase reporter gene assay; format: cell-based
[15] = molecular target: T2, Apelin receptor; assay: Agonist activity at GFP10 tagged human APJ receptor expressed in HEK293 cells harboring Rluc2-Galphai1/GFP10-Ggamma/Gbeta1 after 5 mins by BRET assay; format: cell-based
[16] = molecular target: T2, Apelin receptor; assay: Agonist activity at GFP10 tagged human APJ receptor expressed in HEK293 cells harboring Rluc2-Galpha0A/GFP10-Ggamma/Gbeta1 after 5 mins by BRET assay; format: cell-based
[17] = molecular target: T5, Kappa-type opioid receptor (Rattus norvegicus, UniProt P34975); assay: Agonist activity at GFP-tagged rat kappa opioid receptor expressed in HEK293 cells assessed as increase in ERK1/2 phosphorylation after 5 mins by Western blot analysis; format: cell-based
T5 sequence (P34975 whole entry): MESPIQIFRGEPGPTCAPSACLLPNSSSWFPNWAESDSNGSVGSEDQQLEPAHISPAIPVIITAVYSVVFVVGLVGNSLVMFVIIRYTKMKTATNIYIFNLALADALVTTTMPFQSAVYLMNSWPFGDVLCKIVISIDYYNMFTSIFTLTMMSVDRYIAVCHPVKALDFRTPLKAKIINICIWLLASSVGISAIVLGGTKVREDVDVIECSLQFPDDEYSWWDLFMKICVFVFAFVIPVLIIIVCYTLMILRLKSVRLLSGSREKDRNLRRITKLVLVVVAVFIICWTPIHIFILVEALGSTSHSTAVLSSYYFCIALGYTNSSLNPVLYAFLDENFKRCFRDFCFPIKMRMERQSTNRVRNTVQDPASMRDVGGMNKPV

[18] = molecular target: T5, Kappa-type opioid receptor; assay: Agonist activity at GFP-tagged rat kappa opioid receptor expressed in HEK293 cells assessed as increase in beta-arrestin mediated p38 phosphorylation after 5 mins by Western blot analysis; format: cell-based
[19] = molecular target: T4, Metabotropic glutamate receptor 5; assay: Positive allosteric modulation of rat mGlu5 receptor expressed in HEK293 cells assessed as increase in calcium mobilization after 60 secs in presence of glutamate by Fluo-4 AM dye-based fluorescence assay; format: functional, cell-based

**Q.** Which results are given for Cc1cc2c(N3CCN(CCCCOc4ccc5c(c4)NC(=O)CC5)CC3)cccc2n1C?
**A.** EC50 [1]: 23 nM; Emax [2]: 60%; EC50 [3]: 2.9 nM; Ratio EC50 [4]: 20; Emax [5]: 78%

**Q.** CSCC[C@H](NC(=O)[C@@H]1CCCN1C(=O)CNC(=O)[C@H](CCCCN)NC(=O)[C@H](Cc1cnc[nH]1)NC(=O)[C@@H]1CSSC[C@H](N)C(=O)N[C@@H](CCCNC(=N)N)C(=O)N2CCC[C@H]2C(=O)N[C@@H](CCCNC(=N)N)C(=O)N[C@@H](CC(C)C)C(=O)N1)C(=O)N1CCC[C@H]1C(=O)N[C@@H](Cc1ccccc1)C(=O)O (H-CRPRLCHKGPMPF-OH; disulfide 1-6) was tested. Which EC50 [6] did it give?
**A.** 692 nM

**Q.** And the EC50 [7]?
**A.** 2140 nM

**Q.** What about the EC50 [8] of the same molecule?
**A.** 0.288 nM

**Q.** How did the EC50 [9] turn out when CC[C@H](C)[C@H](NC(=O)[C@@H](NC(=O)[C@H](CCCNC(=N)N)NC(=O)CNC)C(C)C)C(=O)N[C@@H](CCCCN)CN[C@@H](Cc1cnc[nH]1)C(=O)N1CCC[C@H]1C(=O)N[C@H](C)C(=O)O (H-[Sar]RVI-X1) was run?
**A.** 17 nM

**Q.** Which EC50 [10] does the source give for O=C(c1ccc(F)cc1)N1CCc2nc(COc3ccccc3)oc2C1 here?
**A.** 235 nM

**Q.** For N[C@@H](Cn1oc(=O)[nH]c1=O)C(=O)O [QUISQUALATE], which EC50 [11] is on record?
**A.** 630 nM

**Q.** Which EC50 [12] does the source give for N[C@@H](CCC(=O)O)C(=O)O [GLUTAMIC ACID] here?
**A.** 153000 nM

**Q.** How did the EC50 [13] turn out when CC(C)C[C@H](NC(=O)[C@H](CCCCN)NC(=O)[C@@H]1CCCN1C(=O)[C@@H](N)CCCCN)C(=O)N[C@@H](CO)C(=O)N[C@@H]1CC=CCC[C@@H](C(=O)N[C@@H](Cc2ccc(OCc3ccccc3)cc2)C(=O)O)NC(=O)[C@@H]2CCCN2C(=O)CNC(=O)[C@H](CCCCN)NC1=O was run?
**A.** > 10000 nM

**Q.** And the EC50 [14]?
**A.** > 10000 nM

**Q.** What about the EC50 [15] of the same molecule?
**A.** 56 nM

**Q.** And the EC50 [16]?
**A.** 50 nM

**Q.** Which EC50 [17] does the source give for CN(C(=O)/C=C/c1ccoc1)[C@@H]1CC[C@@]2(O)[C@H]3Cc4ccc(O)c5c4[C@@]2(CCN3CC2CC2)[C@H]1O5 [NALFURAFINE] here?
**A.** 0.5 nM

**Q.** And the EC50 [18]?
**A.** 5.2 nM

**Q.** O=C(Nc1ccc(Cl)cc1CN1C(=O)c2cccc(F)c2C1=O)c1ccccn1 was tested. Which EC50 [19] did it give?
**A.** 214 nM

Reference: ChEMBL document CHEMBL4371007, “Biased Ligands of G Protein-Coupled Receptors (GPCRs): Structure-Functional Selectivity Relationships (SFSRs) and Therapeutic Potential” (J Med Chem, 2018)
